Assay results: patent US7435837B2, “Dihydrobenzofuranyl alkanamine derivatives and methods for using same” (Wyeth, priority 2003, dated 2008)

Target: T1, human 5-HT2C receptor (Homo sapiens, UniProt P28335)
T1 sequence (P28335 33-458): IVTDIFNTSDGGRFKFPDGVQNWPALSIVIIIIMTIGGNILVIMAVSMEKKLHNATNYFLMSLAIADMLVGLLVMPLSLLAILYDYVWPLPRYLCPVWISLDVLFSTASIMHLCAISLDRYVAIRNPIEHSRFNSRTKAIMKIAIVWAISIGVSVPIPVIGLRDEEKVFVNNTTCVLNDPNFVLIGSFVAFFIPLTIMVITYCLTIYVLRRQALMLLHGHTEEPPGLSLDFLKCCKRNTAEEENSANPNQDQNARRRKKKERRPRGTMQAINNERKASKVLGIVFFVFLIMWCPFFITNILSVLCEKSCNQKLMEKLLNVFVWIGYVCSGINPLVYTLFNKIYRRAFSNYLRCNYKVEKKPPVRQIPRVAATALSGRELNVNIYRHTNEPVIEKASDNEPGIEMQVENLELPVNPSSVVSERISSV
Assay: 5-HT2C receptor-stimulated calcium mobilization (FLIPR) in CHO cells;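 further: Fluo-3-AM fluorescence read on FLIPR every 1 s, agonist added after 10 baseline reads, response taken as peak minus lowest raw fluorescence count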
Assay type: cell-based
Conditions: for EC50: calcium mobilization, CHO cells stably expressing human 5-HT2C, read-out: 5-HT2C Function EC50; for 5-HT2C Function Emax (%) / Emax: percentage of the response observed with a maximally effective concentration of 5-HT; for Emax: CHO, read-out: 5-HT2C Function Emax (%)

SMILES | EC50 [nM] | 5-HT2C Function Emax (%) | Emax [%]
COc1cc2c(c(-c3cc(Cl)ccc3Cl)c1)OC(CN)C2 (single isomer, unassigned; (-)) [Example 369, (−)-{[7-(2,5-dichlorophenyl)-5-methoxy-2,3-dihydro-1-benzofuran-2-yl]methyl}amine] | 283 | 90 | 
CNCC1Cc2cc(F)cc(-c3c(Cl)cccc3Cl)c2O1 (single isomer, unassigned; (+)) [Example 543, (+){[7-(2,6-dichlorophenyl)-5-fluoro-2,3-dihydro-1-benzofuran-2-yl]methyl}methylamine] | 0.2 | 100 | 
Cc1cccc(C)c1-c1cc(Cl)cc2c1OC(CNC1CCC1)C2 (racemic) [Example 269, (±)-N-{[5-chloro-7-(2,6-dimethylphenyl)-2,3-dihydro-1-benzofuran-2-yl]methyl}cyclobutanamine] | 5120 |  | 20
Cc1cccc(C)c1-c1cc(Cl)cc2c1OC(CNC1CC1)C2 (racemic) [Example 267, (±)-N-{[5-chloro-7-(2,6-dimethylphenyl)-2,3-dihydro-1-benzofuran-2-yl]methyl}cyclopropanamine] | 730 |  | 80
Cc1cccc(C)c1-c1cc(Cl)cc2c1OC(CN1CCCC1)C2 (racemic) [Example 280, (±)-1-{[5-chloro-7-(2,6-dimethylphenyl)-2,3-dihydro-1-benzofuran-2-yl]methyl}pyrrolidine] | 288 |  | 70
Cc1cccc(C)c1-c1cc(Cl)cc2c1OC(CN(C)C)C2 (racemic) [Example 274, (±)-{[5-chloro-7-(2,6-dimethylphenyl)-2,3-dihydro-1-benzofuran-2-yl]methyl}dimethylamine] | 330 |  | 70
CNCC1Cc2cccc(-c3cc(C)ccc3C)c2O1 (racemic) [Example 427, (±)-[(N-methyl-1-[7-(2,5-dimethylphenyl)-2,3-dihydro-1-benzofuran-2-yl]methanamine] | 298 |  | 80
CNCC1Cc2cc(Cl)cc(-c3cc(F)ccc3F)c2O1 (racemic) [Example 470, (±)-{[5-chloro-7-(2,5-difluorophenyl)-2,3-dihydro-1-benzofuran-2-yl]methyl}methylamine] | 289 |  | 70
Cc1cccc(C)c1-c1cc(Cl)cc2c1OC(CN)C2 (single isomer, unassigned; (+)) [Example 262, (+)-{[5-chloro-7-(2,6-dimethylphenyl)-2,3-dihydro-1-benzofuran-2-yl]methyl}amine] | 471 | 70 | 
NC[C@H]1Cc2cc(F)cc(-c3c(Cl)cccc3Cl)c2O1 [Example 550, (−)-{[7-(2,6-dichlorophenyl)-5-fluoro-2,3-dihydro-1-benzofuran-2-yl]methyl}amine] |  |  | 100
Cc1cccc(C)c1-c1cc(Cl)cc2c1OC(CN1CCNCC1)C2 (racemic) [Example 279, (±)-1-{[5-chloro-7-(2,6-dimethylphenyl)-2,3-dihydro-1-benzofuran-2-yl]methyl}piperazine] | 155 |  | 70
CNCC1Cc2cc(F)cc(-c3c(C)cccc3C)c2O1 (single isomer, unassigned; (+)) [Example 558, (+)-{[7-(2,6-dimethylphenyl)-5-fluoro-2,3-dihydro-1-benzofuran-2-yl]methyl}methylamine] | 265 |  | 70
NCC1Cc2cc(Cl)cc(-c3cccc(F)c3F)c2O1 (racemic) [Example 246, (±)-{[5-chloro-7-(2,3-difluorophenyl)-2,3-dihydro-1-benzofuran-2-yl]methyl}amine] |  | 90 | 

Now from value to molecule:

EC50 [nM] | 5-HT2C Function Emax (%) | Emax [%] | SMILES
14 |  | 90 | CNCC1Cc2cc(Cl)cc(-c3cc(Cl)ccc3Cl)c2O1 (racemic) [Example 471, (±)-{[5-chloro-7-(2,5-dichlorophenyl)-2,3-dihydro-1-benzofuran-2-yl]methyl}methylamine]
6 | 60 |  | CNCC1Cc2cc(F)cc(-c3cccc(OC)c3OC)c2O1 (single isomer, unassigned; (+)) [Example 569, (+)-{[7-(2,3-dimethoxyphenyl)-5-fluoro-2,3-dihydro-1-benzofuran-2-yl]methyl}methylamine]
55 |  | 70 | CNCC1Cc2cc(Cl)cc(-c3cccc(OC)c3OC)c2O1 (racemic) [Example 466, (±)-{[5-chloro-7-(2,3-dimethoxyphenyl)-2,3-dihydro-1-benzofuran-2-yl]methyl}methylamine]
8 |  | 90 | COc1cccc(-c2cc(C)cc3c2OC(CN)C3)c1OC (single isomer, unassigned; (-)) [Example 295, (−)-{[7-(2,3-dimethoxyphenyl)-5-methyl-2,3-dihydro-1-benzofuran-2-yl]methyl}amine]
79 |  | 80 | CNCC1Cc2cc(Cl)cc(-c3ccccc3F)c2O1 (racemic) [Example 462, (±)-[(5-chloro-7-(2-fluorophenyl)-2,3-dihydro-1-benzofuran-2-yl]methyl}methylamine]
50 | 80 |  | COc1cccc(-c2cc(C)cc3c2OC(CN)C3)c1OC (single isomer, unassigned; (+)) [Example 296, (+)-{[7-(2,3-dimethoxyphenyl)-5-methyl-2,3-dihydro-1-benzofuran-2-yl]methyl}amine]
21 |  | 80 | CNCC1Cc2cc(Cl)cc(-c3ccc(OC)cc3OC)c2O1 (racemic) [Example 469, (±)-{[5-chloro-7-(2,4-dimethoxyphenyl)-2,3-dihydro-1-benzofuran-2-yl]methyl}methylamine]
72 |  | 80 | CNCC1Cc2cccc(-c3c(C)cccc3C)c2O1 (racemic) [Example 432, (±)-[(N-methyl-1-[7-(2,6-dimethylphenyl)-2,3-dihydro-1-benzofuran-2-yl]methanamine]
49 |  | 50 | CCCNCC1Cc2cc(F)cc(-c3c(Cl)cccc3Cl)c2O1 (racemic) [Example 235, (±)-N-{[7-(2,6-dichlorophenyl)-5-fluoro-2,3-dihydro-1-benzofuran-2-yl]methyl}propan-1-amine]
34 |  | 80 | CNCC1Cc2cc(Cl)cc(-c3c(C)cccc3C)c2O1 (racemic) [Example 461, (±)-{[5-chloro-7-(2,6-dimethylphenyl)-2,3-dihydro-1-benzofuran-2-yl]methyl}methylamine]
3 |  | 70 | CNCC1Cc2cc(C)cc(-c3cccc(OC)c3OC)c2O1 (single isomer, unassigned; (+)) [Example 566, (+)-{[7-(2,3-dimethoxyphenyl)-5-methyl-2,3-dihydro-1-benzofuran-2-yl]methyl}methylamine]
114 |  | 50 | Fc1cc2c(c(-c3c(Cl)cccc3Cl)c1)OC(CNCC1CC1)C2 (racemic) [Example 232, (±)-1-cyclopropyl-N-{[7-(2,6-dichlorophenyl)-5-fluoro-2,3-dihydro-1-benzofuran-2-yl]methyl}methanamine]
37 |  | 80 | CNCC1Cc2cc(F)cc(-c3cccc(OC)c3OC)c2O1 (racemic) [Example 444, (±)-{[7-(2,3-dimethoxyphenyl)-5-fluoro-2,3-dihydro-1-benzofuran-2-yl]methyl}methylamine]
